Values quoted from earlier work as cited in US12691080B2, “Fenretinide formulations, systems incorporating same, and methods for their use” (ARx, LLC, priority 2024, dated 2026).
Converted amounts (≈) assume the structure as drawn.

Assays:
[1] = test system: oral epithelium
[2] = pH 6.5

CC1=C(/C=C/C(C)=C/C=C/C(C)=C/C(=O)Nc2ccc(O)cc2)C(C)(C)CCC1 [fenretinide, N-(4-hydroxyphenyl)retinamide]
epithelial proliferation (Ki-67 indices) ([1]; epithelium with higher fenretinide levels (>5 μM)): significantly reduced | transglutaminase 1 levels ([1]; fenretinide levels lower than 5 μM): increased levels | Phase II enzyme UGT1A1 ([1]; lower fenretinide levels): increase | systemically detectable drug ([1]; oral mucosal patch delivery): absence of any systemically detectable drug | solubility in water [2]: 0.013 µM (≈ 5.09 ng/mL)
